From ChEMBL document CHEMBL3885861, “Open TG-GATES”

Organism: Rattus norvegicus
Test: Open TG-GATES - Regimen: Daily Repeat
Type: toxicity, organism-based, Sprague-Dawley
Set-up: regimen Daily Repeat, gender Male, age 6 weeks
Conditions: in vivo, po, 30 mg/kg, route gavage, dose level High; for APTT / Bas / Eos / Fbg / Hb / Ht / Lym / MCH / MCHC / MCV / Mono / Neu / PT / Plat / RBC / Ret / WBC: tissue Blood
[1] = 72 h, tissue Kidney, time 3 day
[2] = 72 h, tissue Plasma, time 3 day

For `Nc1c2c(nc3ccccc13)CCCC2` [TACRINE], the TERMINAL_BW (72 h, time 3 day) was 194.7 g, the APTT (72 h, time 3 day) was 21.3 s and the Bas (72 h, time 3 day) was 0%. It also gave an Eos (72 h, time 3 day) of 0.7%, a Fbg (72 h, time 3 day) of 361.7 mg/dL and a Hb (72 h, time 3 day) of 14.3 g/dL. The Ht (72 h, time 3 day) was 40.7%, the Lym (72 h, time 3 day) was 73% and the MCH (72 h, time 3 day) was 21 pg. It also gave an MCHC (72 h, time 3 day) of 35.1%, an MCV (72 h, time 3 day) of 59.8 fL and a Mono (72 h, time 3 day) of 2.7%. The Neu (72 h, time 3 day) was 22%, the PT (72 h, time 3 day) was 16.1 s and the Plat (72 h, time 3 day) was 120.4 x10_4/uL. It also gave an RBC (72 h, time 3 day) of 681.7 x10_4/ul, a Ret (72 h, time 3 day) of 3% and a WBC (72 h, time 3 day) of 79 x10_2/uL. For the same compound, the KIDNEY_L [1] was 0.9 g, the KIDNEY_R [1] was 0.9 g and the KIDNEY_TOTAL [1] was 1.9 g. The LIVER (72 h, tissue Liver, time 3 day) was 8.6 g, the A/G [2] was 1.2 and the ALP [2] was 1465.3 IU/L. For the same compound, the ALT [2] was 37.3 IU/L, the AST [2] was 82.7 IU/L and the BUN [2] was 16.3 mg/dL. It also gave a CRE [2] of 0.2 mg/dL, a Ca [2] of 10.8 mg/dL and a Cl [2] of 107.3 meq/L. The DBIL [2] was 0.0067 mg/dL, the GLC [2] was 169 mg/dL and the IP [2] was 7.4 mg/dL. The K [2] was 4.1 meq/L, the LDH [2] was 229.7 IU/L and the Na [2] was 140.7 meq/L. It also gave a PL [2] of 142.7 mg/dL, an RALB [2] of 3.2 g/dL and a TBIL [2] of 0.0233 mg/dL. For the same compound, the TC [2] was 84 mg/dL, the TG [2] was 52 mg/dL and the TP [2] was 5.8 g/dL. For the same compound, the gamma-GTP [2] was 1 IU/L, the TERMINAL_BW ([…], time 7 day) was 217.1 g and the TERMINAL_BW ([…], time 14 day) was 249.3 g. It also gave a TERMINAL_BW ([…], time 28 day) of 315.1 g, an APTT ([…], time 7 day) of 22.7 s and a Bas ([…], time 7 day) of 0%. It also gave an Eos ([…], time 7 day) of 0.7%, a Fbg ([…], time 7 day) of 325.7 mg/dL and a Hb ([…], time 7 day) of 14.2 g/dL. The Ht ([…], time 7 day) was 40.2%, the Lym ([…], time 7 day) was 73% and the MCH ([…], time 7 day) was 21.1 pg. For the same compound, the MCHC ([…], time 7 day) was 35.3%, the MCV ([…], time 7 day) was 59.7 fL and the Mono ([…], time 7 day) was 3.3%. It also gave a Neu ([…], time 7 day) of 22.3%, a PT ([…], time 7 day) of 16.2 s and a Plat ([…], time 7 day) of 127.6 x10_4/uL. It also gave an RBC ([…], time 7 day) of 673.7 x10_4/ul, a Ret ([…], time 7 day) of 4.7% and a WBC ([…], time 7 day) of 124.6 x10_2/uL. It also gave an APTT ([…], time 14 day) of 23.8 s, a Bas ([…], time 14 day) of 0% and an Eos ([…], time 14 day) of 1%. For the same compound, the Fbg ([…], time 14 day) was 320 mg/dL, the Hb ([…], time 14 day) was 15.1 g/dL and the Ht ([…], time 14 day) was 41.9%. The Lym ([…], time 14 day) was 79.3%, the MCH ([…], time 14 day) was 20.4 pg and the MCHC ([…], time 14 day) was 36%. It also gave an MCV ([…], time 14 day) of 56.8 fL, a Mono ([…], time 14 day) of 1.7% and a Neu ([…], time 14 day) of 17.3%. For the same compound, the PT ([…], time 14 day) was 15.8 s, the Plat ([…], time 14 day) was 126 x10_4/uL and the RBC ([…], time 14 day) was 737.3 x10_4/ul. It also gave a Ret ([…], time 14 day) of 3.5%, a WBC ([…], time 14 day) of 110.7 x10_2/uL and an APTT ([…], time 28 day) of 21.4 s. For the same compound, the Bas ([…], time 28 day) was 0%, the Eos ([…], time 28 day) was 1% and the Fbg ([…], time 28 day) was 295 mg/dL. It also gave a Hb ([…], time 28 day) of 15 g/dL and a Ht ([…], time 28 day) of 41.2%.
